Data reported in US11203754B2, “Microrna compositions and methods of making and using same” (Advanced ReGen Medical Technologies, LLC, priority 2016, dated 2021).

Assays:
[1] = tested on: adult stem cells in transwell culture; experiment: Exosome production in transwell cultures with exosome inhibitors; format: cell-based; conditions: BCI-137 10 μM, GW4869 3.5 μM, added Day 0 and Day 3, NONE = 710
Experimental: A series of transwell experiments were carried out by placing adult stem cells of a donor subject (i.e., donor cells) in the upper chamber of a transwell assembly while the adult stem cells of a receiver subject (i.e. receiver cells) were placed in the lower chamber. Referring to FIG. 2, the transwell culture 400 comprised an insert 410 having a permeable surface that allows the donor cells to uptake and secrete molecules on the basal and/or apical surfaces of the transwell. The transwell insert 410 comprised a permeable membrane with a 0.4 μm pore size. At least a portion of the donor cell sample 420 was applied to the transwell insert 410 while the receiver cell sample 430 was positioned within the lower compartment of the transwell culture with an appropriate amount of culture media.
(§1) Exosomes were collected and quantified to determine the effects of inhibitors on exosome production while RNA extracted from the exosomes were analyzed to determine exosome depletion and levels of RNA depletion.

SNORD68 = experiment: Exosomal RNA (ExoRNA) level, SNORD68, with inhibitors; format: cell-based; conditions: BCI-137 10 μM, GW4869 3.5 μM; NONE = 1
Experimental: as §1
(§2) SNORD68 and SNORD95 are small nucleolar RNAs.

SNORD95 = experiment: Exosomal RNA (ExoRNA) level, SNORD95, with inhibitors; format: cell-based; conditions: BCI-137 10 μM, GW4869 3.5 μM; NONE = 1
Experimental: as §1, §2

miRNAs in exosomes = experiment: miRNA depletion in exosomes harvested from the heterochronic culture; format: cell-based
Experimental: as §1, §2

CD34+ cells [2] = experiment: Effect of inhibitor on CD34+ differentiation potential and restoration; format: cell-based
From the text: as §2

CD34+ cells [3] = experiment: Effect of inhibitors on cell function (total cell vitality, CD34+ cell vitality, CD34+ cell expansion); conditions: inhibitor added to transwell culture
Experimental: (§3) To the transwell cultures was added either a pharmacological inhibitor of exosome biogenesis GW4869 (3.5 μM) or an inhibitor of exosome packaging BCI-137 (10 μM). […] Inhibitors were added to the transwell cultures upon initial seeding (Day 0) and again at Day 3.
(§4) Further analysis of the effect of the inhibitors on cell function was assessed by determining the total cell vitality, the CD34+ cell vitality and the extent of CD34+ cell expansion.

CD34+ stem cell = experiment: microRNA nucleofection into mature blood cells: CD34+ clonogenicity (CFU-GM); format: cell-based, human; conditions: Table 8 Experiment #1; total 60 nM into mature blood cells; siRNA vehicle = 20, No Treatment = 10
Experimental: Candidate microRNAs involved in facilitating adoptive cellular restoration therapy were miR-146a, miR-103a, miR-106a and miR-19a. Combinations of candidate microRNAs were nucleofected at a total concentration of 60 nM into mature blood cells using the CD34+ cell human nucleofector kit (Lonza) and the human CD34+ cell protocol, and effect on CD34+ stem cell vitality and clonogenicity were evaluated compared to siRNA vehicle control. Further, the microRNA combination of miR-103a, miR-106b and miR-19a were nucleofected at a total concentration of 90 nM into mature blood cells using the P3 Primary Cell 4D-Nucleofector X Kit (Lonza) and the human T cell high efficiency protocol, and effect on T cell activation and cell-mediated cytotoxicity were evaluated compared to siRNA vehicle control. Additional candidate microRNAs involved in facilitating adoptive cellular restoration therapy identified were miR-1303, miR-7851-3p, miR-223, miR-4497, miR-619-5p and miR-1273f. Combinations of these additional candidate microRNAs were nucleofected at a total concentration of 60 nM into mature blood cells using the CD34+ cell human nucleofector kit (Lonza) and the human CD34+ cell protocol, and effect on CD34+ clonogenicity was evaluated compared to siRNA vehicle control.

CD34+ cells [4] = tested on: CD34+ cells
Experimental: as §3, §4

CC(NS(=O)(=O)c1ccc2[nH]c(=O)c(=O)[nH]c2c1)C(=O)O (stereo not shown) [BCI-137]
Exosome Production (# exosomes × 10^8) [1]: 604 # exosomes × 10^8
Fold Change in ExoRNA SNORD68 (SNORD68): 0.24 Fold Change
Fold Change in ExoRNA SNORD95 (SNORD95): 0.33 Fold Change
depletion of miRNAs in exosomes (miRNAs in exosomes): effectively depleted miRNAs
restorative effects of adoptive cell restoration (CD34+ cells [2]; inhibition by BCI-137): blocked the restorative effects
differentiation in CD34+ heterochronic cells (CD34+ cells [2]; inhibition with BCI-137): decreased
differentiation potential in the CD34+ mature cells (CD34+ cells [2]; inhibition with BCI-137): increased
effect on the juvenile or mature cell health (CD34+ cells [3]): no effect

miR-7851-3p: isolated microRNA miR-7851-3p (SEQ ID NO:10) (UACCUGGGAGACUGAGGUUGGA; listed as RNA, chemistry not given here; listed as Homo sapiens)
CD34+ Differentiation (# CFU-GM) (CD34+ stem cell): 14 # CFU-GM

miR-223: isolated microRNA miR-223-5p (SEQ ID NO:5) (CGUGUAUUUGACAAGCUGAGUU; listed as RNA, chemistry not given here; listed as Homo sapiens)
CD34+ Differentiation (# CFU-GM) (CD34+ stem cell): 10 # CFU-GM

miR-619-5p: isolated microRNA miR-619-5p (SEQ ID NO:8) (GCUGGGAUUACAGGCAUGAGCC; listed as RNA, chemistry not given here; listed as Homo sapiens)
CD34+ Differentiation (# CFU-GM) (CD34+ stem cell): 46 # CFU-GM

O=C(/C=C/c1ccc(/C=C/C(=O)Nc2ccc(C3=NCCN3)cc2)cc1)Nc1ccc(C2=NCCN2)cc1 [GW4869]
Exosome Production (# exosomes × 10^8) [1]: 558 # exosomes × 10^8
Fold Change in ExoRNA SNORD68 (SNORD68): 0.43 Fold Change
Fold Change in ExoRNA SNORD95 (SNORD95): 0.67 Fold Change
depletion of miRNAs in exosomes (miRNAs in exosomes): effectively depleted miRNAs
toxicity to CD34+ cells (CD34+ cells [4]): appeared toxic

miR-1273f: isolated microRNA miR-1273f (SEQ ID NO:9) (GGAGAUGGAGGUUGCAGUG; listed as RNA, chemistry not given here; listed as Homo sapiens)
CD34+ Differentiation (# CFU-GM) (CD34+ stem cell): 9 # CFU-GM

miR-1303: isolated microRNA miR-1303 (SEQ ID NO:7) (UUUAGAGACGGGGUCUUGCUCU; listed as RNA, chemistry not given here; listed as Homo sapiens)
CD34+ Differentiation (# CFU-GM) (CD34+ stem cell): 32 # CFU-GM

miR-4497: isolated microRNA miR-4497 (SEQ ID NO:6) (CUCCGGGACGGCUGGGC; listed as RNA, chemistry not given here; listed as Homo sapiens)
CD34+ Differentiation (# CFU-GM) (CD34+ stem cell): 20 # CFU-GM
